Read-outs that look alike come from different tables or passages of the source. Blank lines part the entries; values can stand above or below the compound they belong to.
Assays:
[1] = cited from earlier work
[2] = type: in vivo, human (healthy subjects); conditions: for AUC(0-inf): AUCinf
[3] = test system: P-glycoprotein (P-gp; MDR1); conditions: in vitro studies; cited from earlier work
[4] = single 60-mg dose, healthy subjects, 14 phase 1 studies; cited from earlier work
[5] = healthy volunteers; cited from earlier work
[6] = on a molar basis; ref data on file; cited from earlier work
[7] = test system: organic anion transporter protein 1B1 (OATP1B1); conditions: in vitro studies; cited from earlier work
[8] = ABCB1 rs1045642 CT, single 60-mg edoxaban, mean±s.d.
[9] = SLCO1B1 rs4149056 C-carriers, single 60-mg edoxaban, mean±s.d.
[10] = SLCO1B1 rs4149056 TT, single 60-mg edoxaban, mean±s.d.
[11] = single 60-mg edoxaban, healthy subjects
[12] = SLCO1B1 rs4149056 C-carriers vs TT homozygotes, with 90% CI
[13] = SLCO1B1 rs4149056 TT, M4 to edoxaban, adjusted for molecular weights, mean±s.d.

- AUC0–24 [2, 8]: 1671 ± 420.3 ng·h/mL
- AUCinf [2, 8]: 1845 ± 417.8 ng·h/mL
- AUC0–24 [2, 9]: 1643.8 ± 392.9 ng·h/mL
- AUCinf [2, 9]: 1815.5 ± 382.4 ng·h/mL
- AUC0–24 [2, 10]: 1644.1 ± 440.6 ng·h/mL
- AUCinf [2, 10]: 1823.5 ± 444.9 ng·h/mL
- AUC(0-t) ([2]; both, human, in vivo, 60 mg, AUC0–24, ABCB1 rs1045642 CC, single 60-mg edoxaban, mean±s.d.): 1610 ± 441 ng·h/mL
- AUC(0-t) ([2]; both, human, in vivo, 60 mg, AUC0–24, ABCB1 rs1045642 TT, single 60-mg edoxaban, mean±s.d.): 1680 ± 442 ng·h/mL
- AUC(0-inf) ([2]; both, human, in vivo, 60 mg, ABCB1 rs1045642 CC, single 60-mg edoxaban, mean±s.d.): 1790 ± 450 ng·h/mL
- AUC(0-inf) ([2]; both, human, in vivo, 60 mg, ABCB1 rs1045642 TT, single 60-mg edoxaban, mean±s.d.): 1860 ± 436 ng·h/mL
- AUC(0-t) ([2]; both, human, in vivo, 60 mg, AUClast, ABCB1 rs1045642 CC, single 60-mg edoxaban, fasting, plasma, mean±s.d.): 1760 ± 447 ng·h/mL
- AUC(0-t) ([2]; both, human, in vivo, 60 mg, AUClast, ABCB1 rs1045642 CT, single 60-mg edoxaban, fasting, plasma, mean±s.d.): 1810 ± 417 ng·h/mL
- AUC(0-t) ([2]; both, human, in vivo, 60 mg, AUClast, ABCB1 rs1045642 TT, single 60-mg edoxaban, fasting, plasma, mean±s.d.): 1820 ± 435 ng·h/mL
- AUC(0-t) ([2]; both, human, in vivo, 60 mg, AUClast, SLCO1B1 rs4149056 C-carriers, single 60-mg edoxaban, mean±s.d.): 1780 ± 381 ng·h/mL
- AUC(0-t) ([2]; both, human, in vivo, 60 mg, AUClast, SLCO1B1 rs4149056 TT, single 60-mg edoxaban, mean±s.d.): 1790 ± 443 ng·h/mL
- concentration at 24 h ([2]; both, human, in vivo, 60 mg, C24, ABCB1 rs1045642 CC, plasma concentration at 24 h postdose, single 60-mg edoxaban, mean±s.d.): 12.5 ± 5.11 ng/mL
- concentration at 24 h ([2]; both, human, in vivo, 60 mg, C24, ABCB1 rs1045642 TT, plasma concentration at 24 h postdose, single 60-mg edoxaban, mean±s.d.): 12.3 ± 6.46 ng/mL
- concentration at 24 h ([2]; both, human, in vivo, 60 mg, C24, SLCO1B1 rs4149056 C-carriers, 24 h postdose, single 60-mg edoxaban, mean±s.d.): 11.6 ± 4.8 ng/mL
- concentration at 24 h ([2]; both, human, in vivo, 60 mg, C24, SLCO1B1 rs4149056 TT, 24 h postdose, single 60-mg edoxaban, mean±s.d.): 12.3 ± 5.4 ng/mL
- Cmax ([2]; both, human, in vivo, 60 mg, Cmax, ABCB1 rs1045642 TT, single 60-mg edoxaban, mean±s.d.): 261 ± 101 ng/mL
- effect of ABCB1 C3435T SNP on exposure [2, 11]: does not significantly affect
- effect of SLCO1B1 T521C SNP on exposure [2, 11]: does not influence
SMILES: CN1CCc2nc(C(=O)N[C@@H]3C[C@@H](C(=O)N(C)C)CC[C@@H]3NC(=O)C(=O)Nc3ccc(Cl)cn3)sc2C1 [Edoxaban, edoxaban]
- absorbed dose renally eliminated [1]: ~ 50%
- absorbed drug eliminated unmodified [1]: ~73%
- substrate of P-glycoprotein [3]: substrate
- tolerability [4]: generally well tolerated

- geometric LS means ratio, AUCinf [2, 12]: 126.9 (90% CI, 117.4–137.1)
- geometric LS means ratio, C24 [2, 12]: 114.9 (90% CI, 104.0–127.0)
- geometric LS means ratio, Cmax [2, 12]: 124.1 (90% CI, 111.9–137.5)
- C24 ([2]; SLCO1B1 rs4149056 C-carriers, 24 h postdose, single 60-mg edoxaban, mean±s.d.): 1.3 ± 0.74 ng/mL
- AUC0–24 [2, 9]: 170.0 ± 73.0 ng·h/mL
- AUCinf [2, 9]: 191.9 ± 76.4 ng·h/mL
- AUClast [2, 9]: 184.6 ± 75.6 ng·h/mL
- Cmax [2, 9]: 26.7 ± 13.6 ng/mL
- C24 ([2]; SLCO1B1 rs4149056 TT, 24 h postdose, single 60-mg edoxaban, mean±s.d.): 1.1 ± 0.57 ng/mL
- MPR AUCinf (metabolite to parent ratio) [2, 13]: 8.7±2.9
- MPR AUClast (metabolite to parent ratio) [2, 13]: 8.7±2.9
- MPR Cmax (metabolite to parent ratio) [2, 13]: 8.8±3.1
- AUC0–24 [2, 10]: 134.7 ± 57.2 ng·h/mL
- AUCinf [2, 10]: 150.2 ± 61.4 ng·h/mL
- AUClast [2, 10]: 147.1 ± 60.7 ng·h/mL
- Cmax [2, 10]: 21.2 ± 10.7 ng/mL
- plasma M4 concentration as share of edoxaban levels ([2]; plasma, healthy subjects): < 10%
- effect of SLCO1B1 T521C SNP on exposure [2, 11]: elevated among C-carriers
SMILES: CN1CCc2nc(C(=O)N[C@@H]3C[C@@H](C(=O)O)CC[C@@H]3NC(=O)C(=O)Nc3ccc(Cl)cn3)sc2C1 [M4]
- share of the total anticoagulant exposure [1]: < 10%
- levels on coadministration of cyclosporine or rifampin [5]: increase
- anticoagulant activity compared with edoxaban [6]: similar
- substrate of OATP1B1 [7]: substrate

— article PMC5817390 (The Pharmacogenomics Journal, 2016)
